pEC50: −log10 of the molar value.
What was measured:
[1] = Assay for the Determination of Metabolic Stability with Human Hepatocytes; assay type: in vitro ADME; settings: scaled with well stirred model
Description: Assay for the Determination of Metabolic Stability with Human Hepatocytes
The metabolic degradation of the test compound is assayed in a human hepatocyte suspension. Human hepatocytes (typically cryopreserved) are incubated in an appropriate buffer system (e.g. Dulbecco's modified eagle medium plus 3.5 μg glucagon/500 mL, 2.5 mg insulin/500 mL and 3.75 mg/500 mL hydrocortison) containing 5% species serum. Following a (typically) […] preincubation in an incubator (37° C., 10% CO2), 5 μl of test compound solution (80 μM; from 2 mM stock solution in DMSO diluted 1:25 with medium) are added into 395 μl hepatocyte suspension (cell density in the range 0.25-5*10^6 cells/mL, typically 1*10^6 cells/mL; final concentration of test compound 1 μM, final DMSO concentration […]). The cells are incubated for six hours (incubator, orbital shaker) and samples (25 μl) are taken at 0, 0.5, 1, 2, 4 and 6 hours. Samples are transferred into acetonitrile and pelleted by centrifugation (5 min). The supernatant is transferred to a new 96-deepwell plate, evaporated under nitrogen and resuspended. The decline of parent compound is analyzed by LC-MS/MS.
The intrinsic clearance CL_[…] is calculated as follows: CL_[…]=Dose/AUC=(C0/CD)/(AUD+clast/k)*1′000/60 (C0: initial concentration in the incubation [μM], CD: cell density of vital cells [10^6 cells/mL], AUD: area under the data [μM*h], clast: concentration of last data point [μM], k: slope of the regression line for parent decline [h^−1])
The calculated in vitro hepatic intrinsic clearance can be scaled up to the intrinsic in vivo hepatic clearance and used to predict hepatic in vivo blood clearance (CL) by the use of a is liver model (well stirred model): CL_[…]_INVIVO [ml/min/kg]=(CL_[…] [μL/min/10^6 cells]* hepatocellularity[10^6 cells/g liver]*liver factor[g/kg bodyweight])/1′000 CL[ml/min/kg]=CL_[…]_INVIVO [ml/min/kg]*hepatic blood flow [ml/min/kg]/(CL_[…]_INVIVO [ml/min/kg]+hepatic blood flow [ml/min/kg]) Qh[%]=CL[ml/min/kg]/hepatic blood flow[ml/min/kg]) (Hepatocellularity, human: 120*10^6 cells/g liver; lver factor, human: 25.7 g/kg bodyweight; blood flow, human: 21 ml/(min*kg))
The predicted human hepatic in vivo blood clearance (CL) of selected compounds in the metabolic stability assay described above are listed in Table 16.

[2] = molecular target: neutrophil elastase in human plasma (Homo sapiens (Human), UniProt P08246); assay: Assay for the Determination of Neutrophil Elastase Inhibitory Activity in Human Plasma; assay type: biochemical; settings: neutrophil elastase enriched human plasma (zymosan-stimulated blood)
Description: Assay for the Determination of Neutrophil Elastase Inhibitory Activity in Human Plasma
Citrated blood from human healthy donors is mixed with zymosan suspension and incubated at room temperature. This leads to the stimulation of neutrophils and the release of neutrophil elastase into the plasma. The stimulated blood is centrifuged to generate the neutrophil elastase enriched plasma.
Preparation of Zymosan Working Solution:
• single 45 ml blood sample is taken into a 50 ml tube containing citrate (3.13%, 5 mL) and the tube is gently inverted 4 times. • Immediately after blood sampling, zymosan working solution (5 mL) is added. • After the addition of zymosan working solution, the tubes are capped, mixed gently and incubated at 22° C. for 15 min on a shaker at 20 rpm. • Make 10 ml aliquots after the incubation time. • Centrifuge the 15 ml tubes at 800 g for […] at 4° C. in a Jouan centrifuge. • Harvest the plasma and make 1-5 ml aliquots. • Store the plasma at −80° C.
Various concentrations of the neutrophil elastase inhibitor are incubated with plasma. Subsequently, the enzyme activity is measured using the fluorogenic substrate MeOSuc-Ala-Ala-Pro-Val-AMC (Bachem Cat. No. 1-1270, substrate concentration: 250 μM, pH 7.5, 25 mM TRIS buffer, 250 mM NaCl) in analogous fashion as described for the human neutrophil assay. A dose response curve is generated to calculate the EC50 of the inhibitor. The analysis of the data is performed by the calculation of the percentage of fluorescence in the presence of the test compound compared to the fluorescence of the vehicle control after subtracting the background fluorescence: An inhibitor of the neutrophil elastase enzyme will give values between 100% control (no inhibition) and 0% control (complete inhibition). The human plasma shift of selected compounds can be calculated using the following equation: Human plasma shift=(EC50 in human plasma assay)/(IC50 in human neutrophil elastase assay) The EC50 values of selected compounds in the human plasma assay described above are listed in Table 14.

Chain of neutrophil elastase in human plasma (P08246 30-267): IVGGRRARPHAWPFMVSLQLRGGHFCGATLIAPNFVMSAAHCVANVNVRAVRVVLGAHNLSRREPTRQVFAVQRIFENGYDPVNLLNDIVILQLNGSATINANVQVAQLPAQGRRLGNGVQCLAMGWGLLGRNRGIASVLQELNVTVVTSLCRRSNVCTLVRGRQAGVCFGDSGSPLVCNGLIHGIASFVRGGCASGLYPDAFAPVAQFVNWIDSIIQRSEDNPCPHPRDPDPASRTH

SMILES	CL (predicted human hepatic in vivo blood clearance) [1] [mL/min/kg]	pEC50 [2]
CNC(=O)N1C(=O)N(c2cccc(C(F)(F)F)c2)C2=C(C(=O)CCC2)[C@H]1c1ccc(C#N)cc1S(C)(=O)=O (single isomer, unassigned) [Example 47A]	0	9.00
CS(=O)(=O)c1cc(C#N)ccc1[C@H]1NC(=O)N(c2cccc(C(F)F)c2)C2=C1C(=O)CCC2 (single isomer, unassigned) [Example 19A]	0	8.70
CC(C)(O)CNC(=O)N1C(=O)N(c2cccc(C(F)(F)F)c2)C2=C(C(=O)CCC2)C1c1ccc(C#N)cc1 (stereo not shown) [Example 70.9]	0	7.82

Results, then the compound that gave them:

CL (predicted human hepatic in vivo blood clearance) [1] [mL/min/kg]	pEC50 [2]	SMILES
0	8.52	CS(=O)(=O)c1cc(C#N)ccc1[C@H]1NC(=O)N(c2cccc(C(F)(F)F)c2)C2=C1C(=O)CCC2 (single isomer, unassigned) [Example 18A]
2	9.00	CCS(=O)(=O)c1cc(C#N)ccc1[C@H]1NC(=O)N(c2cccc(C(F)(F)F)c2)C2=C1C(=O)CCC2 (single isomer, unassigned) [Example 54A]

Reference: patent USRE47493E1, “Substituted bicyclic dihydropyrimidinones and their use as inhibitors of neutrophil elastase activity” (Boehringer Ingelheim International GmbH, priority 2014, dated 2019)
